Experimental data from patent publication US20120208781A1, “AMINOGLYCOSIDE DOSING REGIMENS” (Achaogen, Inc., priority 2009, published 2012).
Converted amounts (≈) assume the structure as drawn. Where two headings read alike, the source gives them in different places.

Legend:
[1] = system: E. coli; experiment: MIC, further Brooklyn patient isolates: E. coli; format: cell-based; design: unit not given beside the values; conditions: E. coli (n = 3071)
Procedure: (§1) Minimum inhibitory concentrations (MIC) were determined by reference Clinical and Laboratory Standards Institute (CLSI) broth microdilution methods per M7-A7 [2006]. Briefly, serial two-fold dilutions of Compound 1 and comparator AGs (together, “the test compounds”) were prepared at 2× concentration in appropriate diluent. The dilutions were mixed in 96-well assay plates with bacterial inoculum. Bacteria were suspended in sterile saline and added to each assay plate to obtain a final concentration of 5.5×10^5 CFU/mL. The plates were incubated at 35° C. for 20 hours in ambient air. […] After incubation, assay plates were read using a microtiter plate reader at 600 nm.
(§2) Further studies analyzed a greater number of unique patient isolates obtained from Brooklyn, N.Y. hospitals (including those species described above). These species included Acinetobacter, E. coli, Enterobacter, Klebsiella, and Pseudomonas.

[2] = system: Enterobacter; experiment: MIC, further Brooklyn patient isolates: Enterobacter; format: cell-based; design: unit not given beside the values; conditions: Enterobacter (n = 206)
Procedure: as §1, §2

[3] = system: Klebsiella; experiment: MIC, further Brooklyn patient isolates: Klebsiella; format: cell-based; design: unit not given beside the values; conditions: Klebsiella (n = 1151)
Procedure: as §1, §2

[4] = system: rat kidney; experiment: Rat nephrotoxicity model: kidney histopathology (H&E); format: in vivo, Sprague-Dawley rats; conditions: rats, 14 d once-daily
Procedure: This rat nephrotoxicity study design used 14 days of once-daily dosing of aminoglycosides in adult Sprague-Dawley rats. Rats were allowed full access to food and water, and aminoglycosides were dosed subcutaneously at 1 mL/kg dosing volume, formulated in water. Nephrotoxicity was assessed by monitoring changes in serum markers of glomerular filtration rate (GFR), namely blood urea nitrogen (BUN) and serum creatinine. Microscopic examination of kidney slices after fixation and hematoxylin and eosin (H&E) staining was also utilized, scoring for tubular dilation, cellular casts, interstitial inflammation, and regenerative changes to the tubules.

[5] = system: rat kidney; experiment: Rat nephrotoxicity model: serum markers of GFR (BUN, serum creatinine); format: in vivo, Sprague-Dawley rats; conditions: dose-response for BUN elevation
[6] = system: hearing function; conditions: guinea pig, in vivo
Procedure: The ototoxicity of aminoglycosides was investigated in 28-day studies in guinea pigs (executed at MPI Research Inc., Mattawan, Mich.). […] Animals assigned to the study had body weights within ±20% of the mean body weight. The vehicle and positive control articles were administered daily for 14 days during the study via bolus subcutaneous injection in the scapular region on the back of each animal. The control group received the vehicle in the same manner as the treated groups. Individual doses were based on the most recent body weights. […] The dose levels for these studies were selected based upon published accounts of aminoglycoside ototoxicity in the guinea pig using similar dosing regimes (e.g., Brummett, A. R. et al., J. Antimicrob Chemother, 1978 May; 4 Suppl A:73-83; Kitasato, I. et al., Chemotherapy, 1990; 36(2):155-68). Doses were chosen to maximize exposure while avoiding significant nephrotoxicity, which would have confounded the analysis given that aminoglycosides are renally cleared.
Clinical observations were conducted predose (Day 1), immediately following the completion of each vehicle or positive control article administration on dosing days, and daily thereafter. Body weights were measured and recorded predose (Day 1) and daily thereafter. Physical examinations were conducted pretest and on Day 28.
Bilateral in-vivo electrophysiology (auditory brainstem response) examinations were conducted pretest and prior to the terminal necropsy. Hearing function changes were measured by comparing auditory brainstem response (ABR) values at the end of the study period versus pre-dosing values of each individual animal. […] Additional ketamine and xylazine were administered as necessary. […] Following ABR evaluations, yohimbine (1 mg/kg) was administered via intraperitoneal (IP) injection as a reversal agent. At study termination (Day 29), necropsy examinations were performed, and designated tissues were collected, examined and rated, and preserved for processing and histopathological evaluation, as described below.

[7] = system: cochlear hair cells; experiment: Cytocochleogram analysis in 28-day guinea pig ototoxicity model; format: in vivo, guinea pigs; conditions: guinea pigs
Procedure: Following euthanasia and whole body intravascular perfusion with 4% paraformaldehyde, the temporal bones of the left and right ears were removed. Gross middle ear assessments were performed using a dissecting microscope. […] Following gross middle ear assessment, the cochleas of the left ear were fixed by intrascalar perfusion with 4% paraformaldehyde. Cochlea tissues of both ears were placed in 4% paraformaldehyde for approximately 1 hour. Tissues were then transferred to 0.5% paraformaldehyde, stored refrigerated, and shipped on gel packs to the Kresge Hearing Research Institute, Ann Arbor, Mich., for further processing and cytocochleogram analysis.
These guinea pig ototoxicity studies also included microscopic analysis of surgically dissected cochleas from each animal to assess hair cell damage (cytocochleograms). The underlying cause of aminoglycoside related hearing loss is damage to the hair cells of the auditory system after significant accumulation of aminoglycosides in the inner ear. In the cochlea, drug-induced hair cell loss typically progresses from the basal to the apical turns of the cochlea. Perception of high-frequency sounds, a function of the basal hair cells, is lost first; perception of low-frequency sounds, a function of the more apical hair cells, is the last to be lost (Selimoglu, E., Curr Pharm Des. 2007; 13(1):119-26). For obvious reasons, it is impractical to obtain cytocochleograms from each animal prior to dosing, and some hair cell loss is usually observed in control (vehicle dosed) animals in these guinea pig studies. This variability makes it difficult to determine whether hair cell loss observed post-treatment is due to the drug treatment, especially mild hair cell loss, […]

[8] = system: Gram-negative and Gram-positive clinical isolates; experiment: MIC, CLSI broth microdilution, 235 worldwide isolates (all); format: cell-based; conditions: 235 isolates
From the text: In the first study, a total of 235 isolates were collected from medical centers worldwide and tested for susceptibility to Compound 1 and comparator agents by CLSI broth microdilution methods. […] Non-ENT GN pathogens included WT P. aeruginosa (PSA) and Acinetobacter spp. (ACB), and carbapenem (CARB)-R strains, including those with MBL and OXA enzymes, SA and coagulase-negative staphylococci (CoNS) included oxacillin-susceptible (MSSA/MS-CoNS) and —R (MRSA/MR-CoNS) strains.
as §1

[9] = system: P. aeruginosa (PA); experiment: MIC, broth microdilution, Brooklyn hospital isolates: P. aeruginosa; format: cell-based; conditions: PA (n = 33)
Procedure: (§3) In another study, the activity of Compound 1 against a collection of contemporary Gram-negative bacteria was determined. Unique patient isolates of P. aeruginosa (PA), A. baumannii (AB), K. pneumoniae (KP), E. coli (EC), and Enterobacter spp. (EB) from prior surveys at 16 Brooklyn, N.Y. hospitals were selected based on resistance patterns. The majority of isolates were fingerprinted by automated ribotyping. MICs were performed by broth microdilution. PCR was used to identify aminoglycoside-modifying enzymes (AMEs) in AB and KP and the KPC gene in Enterobacteriaceae (EN). The expression of the efflux genes mexA, C, E and X in PA, and adeB in AB was assessed by real-time RT-PCR.

[10] = system: Enterobacter spp. (EB); experiment: MIC, broth microdilution, Brooklyn hospital isolates: Enterobacter spp.; format: cell-based; conditions: EB (n = 30)
Procedure: as §3

[11] = system: E. coli (EC); experiment: MIC, broth microdilution, Brooklyn hospital isolates: E. coli; format: cell-based; conditions: EC (n = 32)
Procedure: as §3

[12] = system: K. pneumoniae (KP); experiment: MIC, broth microdilution, Brooklyn hospital isolates: K. pneumoniae; format: cell-based; conditions: KP (n = 71)
Procedure: as §3

[13] = system: A. baumannii (AB); experiment: MIC, broth microdilution, Brooklyn hospital isolates: A. baumannii; format: cell-based; conditions: AB (n = 38)
Procedure: as §3

Question: How did the MIC50 [1] turn out when CO/N=C(\C(=O)N[C@@H]1C(=O)N2C(C(=O)O)=C(CSc3nc(=O)c(O)nn3C)CS[C@H]12)c1csc(N)n1 [CRO] was run?
Answer: The MIC50 was “≦0.25”.

Question: What about the MIC50 [2] of the same compound?
Answer: The MIC50 was “≦0.25”.

Question: CO/N=C(\C(=O)N[C@@H]1C(=O)N2C(C(=O)[O-])=C(C[N+]3(C)CCCC3)CS[C@H]12)c1csc(N)n1 [FEP, cefepime] was tested. Which MIC50 [1] did it give?
Answer: The MIC50 was “≦0.25”.

Question: What about the MIC90 [1] of the same compound?
Answer: The MIC90 was “≦0.25”.

Question: What about the MIC50 [2] of the same compound?
Answer: The MIC50 was “≦0.25”.

Question: Which MIC50 [1] does the source give for C[C@@H](O)[C@H]1C(=O)N2C(C(=O)O)=C(S[C@@H]3CN[C@H](C(=O)N(C)C)C3)[C@H](C)[C@H]12 [MEM, meropenem] here?
Answer: The MIC50 was “≦0.125”.

Question: And the MIC90 [1]?
Answer: Its MIC90 is “≦0.125”.

Question: What about the MIC50 [3] of the same compound?
Answer: The MIC50 was “≦0.125”.

Question: What about the MIC50 [2] of the same compound?
Answer: Its MIC50 is “≦0.125”.

Question: Which results are given for NC[C@@H]1O[C@H](O[C@H]2[C@@H](O)[C@H](O[C@@H]3[C@@H](O)[C@H](N)C[C@H](N)[C@H]3O[C@H]3O[C@H](CO)[C@@H](O)[C@H](O)[C@H]3N)O[C@@H]2CO)[C@H](N)[C@@H](O)[C@@H]1O [Paromomycin, paromomycin]?
Answer: Histopathology score (0 to 5 Scale): Casts ([4]; 30 mg/kg): 0 +/− 0; Histopathology score (0 to 5 Scale): Dilation ([4]; 30 mg/kg): 1 +/− 1; Histopathology score (0 to 5 Scale): Inflammation ([4]; 30 mg/kg): 1.4 +/− 0.9; Histopathology score (0 to 5 Scale): Regeneration ([4]; 30 mg/kg): 1.4 +/− 0.5; Histopathology score (0 to 5 Scale): Casts ([4]; 100 mg/kg): 2.6 +/− 0.5; Histopathology score (0 to 5 Scale): Dilation ([4]; 100 mg/kg): 3.2 +/− 0.4; Histopathology score (0 to 5 Scale): Inflammation ([4]; 100 mg/kg): 3 +/− 0; Histopathology score (0 to 5 Scale): Regeneration ([4]; 100 mg/kg): 4 +/− 0; Histopathology score (0 to 5 Scale): Casts ([4]; 300 mg/kg): 0 +/− 0; Histopathology score (0 to 5 Scale): Dilation ([4]; 300 mg/kg): 0 +/− 0; Histopathology score (0 to 5 Scale): Inflammation ([4]; 300 mg/kg): 0 +/− 0; Histopathology score (0 to 5 Scale): Regeneration ([4]; 300 mg/kg): 0 +/− 0; apparent relative nephrotoxicity (ranking) [5]: Neomycin≈Gentamicin>Tobramycin>Apramycin≈Paromomycin>Amikacin

Question: Which results are given for NCC[C@H](O)C(=O)N[C@@H]1C[C@H](N)[C@@H](O[C@H]2O[C@H](CN)[C@@H](O)[C@H](O)[C@H]2O)[C@H](O)[C@H]1O[C@H]1O[C@H](CO)[C@@H](O)[C@H](N)[C@H]1O [amikacin]?
Answer: Histopathology score (0 to 5 Scale): Casts ([4]; 10 mg/kg): 0 +/− 0; Histopathology score (0 to 5 Scale): Dilation ([4]; 10 mg/kg): 0.2 +/− 0.4; Histopathology score (0 to 5 Scale): Inflammation ([4]; 10 mg/kg): 0.4 +/− 0.5; Histopathology score (0 to 5 Scale): Regeneration ([4]; 10 mg/kg): 0.2 +/− 0.4; Histopathology score (0 to 5 Scale): Casts ([4]; 30 mg/kg): 0 +/− 0; Histopathology score (0 to 5 Scale): Dilation ([4]; 30 mg/kg): 0 +/− 0; Histopathology score (0 to 5 Scale): Inflammation ([4]; 30 mg/kg): 0.4 +/− 0.5; Histopathology score (0 to 5 Scale): Regeneration ([4]; 30 mg/kg): 0.2 +/− 0.4; Histopathology score (0 to 5 Scale): Casts ([4]; 100 mg/kg): 0 +/− 0; Histopathology score (0 to 5 Scale): Dilation ([4]; 100 mg/kg): 0.2 +/− 0.4; Histopathology score (0 to 5 Scale): Inflammation ([4]; 100 mg/kg): 0.6 +/− 0.5; Histopathology score (0 to 5 Scale): Regeneration ([4]; 100 mg/kg): 0.6 +/− 0.5; Histopathology score (0 to 5 Scale): Casts ([4]; 300 mg/kg): 0 +/− 0; Histopathology score (0 to 5 Scale): Dilation ([4]; 300 mg/kg): 1.2 +/− 0.8; Histopathology score (0 to 5 Scale): Inflammation ([4]; 300 mg/kg): 1.2 +/− 0.4; Histopathology score (0 to 5 Scale): Regeneration ([4]; 300 mg/kg): 1.4 +/− 0.5; clinical observations, body weights, physical examinations, macroscopic observations [6]: no vehicle or positive control article-related changes in any dose group; number of animals with hearing loss ([6]; male, Crl:HA (Albino Hartley), 75 mg/kg, 14 days): 1 of 6; number of animals with hearing loss ([6]; male, Crl:HA (Albino Hartley), 150 mg/kg, 14 days): 2 of 6; ABR threshold shift ([6]; male, Crl:HA (Albino Hartley), 300 mg/kg/day, 14 days): > 15 dB; hearing loss (ABR threshold changes) ([6]; male, Crl:HA (Albino Hartley), sc, 300 mg/kg, 14 days): hearing losses from moderate at 4 kHz, to severe at 10 kHz, and to profound at 20 kHz; animals with minimal loss of outer hair cells ([7]; 75 mg/kg/day): 3/6; animals with minimal loss of outer hair cells ([7]; 150 mg/kg/day): 3/6; animals with large loss of outer hair cells ([7]; 300 mg/kg/day): All animals; animals with some loss of inner hair cells ([7]; 300 mg/kg/day): 3/6; overall sensitivity (S) [8]: 77.0%; Susceptible [9]: 94%; MIC50 ([9]; Pseudomonas aeruginosa): 4 µg/mL (≈ 6.83 µM); MIC90 ([9]; Pseudomonas aeruginosa): 16 µg/mL (≈ 27.3 µM); Susceptible [10]: 93%; MIC50 ([10]; Enterobacter): 4 µg/mL (≈ 6.83 µM); MIC90 ([10]; Enterobacter): 16 µg/mL (≈ 27.3 µM); Susceptible [11]: 91%; MIC50 ([11]; Escherichia coli): 4 µg/mL (≈ 6.83 µM); MIC90 ([11]; Escherichia coli): 16 µg/mL (≈ 27.3 µM); Susceptible [12]: 58%; MIC50 ([12]; Klebsiella pneumoniae): 16 µg/mL (≈ 27.3 µM); MIC90 ([12]; Klebsiella pneumoniae): 64 µg/mL (≈ 109 µM); apparent relative nephrotoxicity (ranking) [5]: Neomycin≈Gentamicin>Tobramycin>Apramycin≈Paromomycin>Amikacin; Susceptible [13]: 82%; MIC50 ([13]; Acinetobacter baumannii): 8 µg/mL (≈ 13.7 µM); MIC90 ([13]; Acinetobacter baumannii): 64 µg/mL (≈ 109 µM)
